Experimental data published in PMC8704606, “The Artemiside-Artemisox-Artemisone-M1 Tetrad: Efficacies against Blood Stage P. falciparum Parasites, DMPK Properties, and the Case for Artemiside” (Pharmaceutics, 2021).
Like-named read-outs stand apart in the source and are kept apart here.

Key:
[1] = Cytotoxicity (LDH assay) against HepG2 cells; format: cell-based; conditions: human, HepG2 cells (hepatocellular carcinoma)
Protocol: Cytotoxicity against mammalian hepatocellular carcinoma cells (HepG2 cells) was determined using the lactate dehydrogenase assay (LDH, Biovision Inc., Milpitas, CA, USA). […] Compound working solutions were prepared from 10 mM stock solutions (100% DMSO) in complete DMEM to a final DMSO (Sigma-Aldrich) conc. of <0.1% (vol/vol). […] Data analysis was performed using GraphPad Prism (version 6) software.

[2] = Pharmacokinetics and metabolism after iv and po administration; format: in vivo; conditions: for half-life: mean ± SD, read-out: t½ (converted); for MRT last: read-out: MRT0-last; for AUC(0-t): up to 7 h
Protocol: The plasma concentration-time profiles of the parent compounds and metabolites after administration iv and po to male C57/BL6 mice are presented in Figure 2, Figure 3 and Figure 4. Artemiside was quantifiable up to 24 h in all mice dosed iv and up to 7 h po (lower limit of quantitation LLOQ = 1.6 ng/mL or 0.004 μM) (Figure 2). […] For both artemiside and artemisox, the metabolite artemisone was quantifiable up to 3 h in both the po and iv groups (Figure 2 and Figure 3). Thereby it is confirmed that artemiside is rapidly converted via artemisox into artemisone. Artemisone itself was quantifiable up to three hours post dose (Figure 4). The mean circulating concentrations for the compounds and their metabolites are presented in Table S3a–f in the Supplementary Material 1. The metabolite M1 was also detected upon administration of artemiside, artemisox, and artemisone, but it was not quantified here; chromatograms indicating the presence of M1 are illustrated in Figure S3a–c in the Supplementary Material 1. In addition, the plasma concentration-time curves for artemiside and its metabolites artemisone and M1 following iv and po dosing in the same murine model are presented and discussed in detail elsewhere (cf. Figure 4 in reference).
All work was conducted with prior approval of the animal ethics committee of the University of Cape Town in accordance with the South African National Standards for the Care and Use of Animals for Scientific Purposes and guidelines from the South African Department of Health. The requirements and methods for the pharmacokinetics in vivo involving po and iv drug administration, sample extraction, analyses of samples by LC-MS/MS, and data analyses are described elsewhere. For the animal experiments and formulations, the compounds were dissolved in a 10:60:30 mixture of N,N-dimethylacetamide-polypropylene glycol-polyethylene glycol for intravenous dosing (iv) at 5 mg/kg. For the oral dose (po), compounds were individually dosed as a suspension in 0.5% (w/v) hydroxypropylmethylcellulose in water with 0.2% Tween80 at 50 mg/kg to male C57/BL6 mice (n = 3 for each group). For PK sampling, blood samples were collected at predetermined times (0.08, 0.25, 0.5, 1, 3, 5, 7, and 24 h) for both po and iv dosing via tail bleeding into heparinized tubes, centrifuged, and the plasma samples were stored at −80 °C until extraction. For preparation of samples, the frozen plasma samples were thawed and 15 μL was extracted by liquid–liquid extraction using a universal buffer (pH8) containing 10 ng/mL of the internal standard and ethyl acetate, and the extract was vortexed and centrifuged. Calibration standards and quality controls were extracted following the same procedure. Supernatants were dried down, reconstituted, and injected onto the column for LC-MS/MS analysis using an AB SCIEX 5500 QTRAP instrument coupled to an Agilent 1260 HPLC detection system as previously described.

[3] = male, C57/BL6, mouse, plasma, iv 5 mg/kg, parent drug
[4] = male, C57/BL6, mouse, plasma, po 50 mg/kg, parent drug

For `C[C@H]1[C@H](N2CC[S+]([O-])CC2)O[C@@H]2O[C@@]3(C)CC[C@H]4[C@H](C)CC[C@@H]1[C@@]24OO3` [Artemisox 6, Artemisox], the IC50 at 24 h [1] was > 50 µM, the “Mean iv circulating concentration” value ([2]; 7 h after iv 5 mg/kg artemisox 6) was “blq” and the “Mean iv circulating concentration” value ([2]; 24 h after iv 5 mg/kg artemisox 6) was “blq”. For the same compound, the “Mean po circulating concentration” value ([2]; 24 h after po 50 mg/kg artemiside 5) was “blq”, the “Mean po circulating concentration” value ([2]; 24 h after po 50 mg/kg artemisox 6) was “blq” and the “quantifiable/detectable in plasma up to” value ([2]; iv group, parent drug, LLOQ 1.6 ng/mL or 0.004 μM for artemiside) was “up to 5 h”. The concentration at 0.08 h ([2]; male, C57/BL6, mouse, plasma, iv, 5 mg/kg, 0.08 h after iv 5 mg/kg artemiside 5, read-out: Mean iv circulating concentration) was 1930 nM, the concentration at 0.08 h ([2]; male, C57/BL6, mouse, plasma, iv, 5 mg/kg, 0.08 h after iv 5 mg/kg artemisox 6, read-out: Mean iv circulating concentration) was 1900 nM and the concentration at 0.25 h ([2]; male, C57/BL6, mouse, plasma, iv, 5 mg/kg, 0.25 h after iv 5 mg/kg artemiside 5, read-out: Mean iv circulating concentration) was 1820 nM. The concentration at 0.25 h ([2]; male, C57/BL6, mouse, plasma, iv, 5 mg/kg, 0.25 h after iv 5 mg/kg artemisox 6, read-out: Mean iv circulating concentration) was 2420 nM, the concentration at 0.5 h ([2]; male, C57/BL6, mouse, plasma, iv, 5 mg/kg, 0.5 h after iv 5 mg/kg artemiside 5, read-out: Mean iv circulating concentration) was 1380 nM and the concentration at 0.5 h ([2]; male, C57/BL6, mouse, plasma, iv, 5 mg/kg, 0.5 h after iv 5 mg/kg artemisox 6, read-out: Mean iv circulating concentration) was 1920 nM. It also gave a concentration at 1 h ([2]; male, C57/BL6, mouse, plasma, iv, 5 mg/kg, 1 h after iv 5 mg/kg artemiside 5, read-out: Mean iv circulating concentration) of 674 nM, a concentration at 1 h ([2]; male, C57/BL6, mouse, plasma, iv, 5 mg/kg, 1 h after iv 5 mg/kg artemisox 6, read-out: Mean iv circulating concentration) of 663 nM and a concentration at 3 h ([2]; male, C57/BL6, mouse, plasma, iv, 5 mg/kg, 3 h after iv 5 mg/kg artemiside 5, read-out: Mean iv circulating concentration) of 66 nM. For the same compound, the concentration at 3 h ([2]; male, C57/BL6, mouse, plasma, iv, 5 mg/kg, 3 h after iv 5 mg/kg artemisox 6, read-out: Mean iv circulating concentration) was 7 nM, the concentration at 5 h ([2]; male, C57/BL6, mouse, plasma, iv, 5 mg/kg, 5 h after iv 5 mg/kg artemiside 5, read-out: Mean iv circulating concentration) was 20 nM and the concentration at 5 h ([2]; male, C57/BL6, mouse, plasma, iv, 5 mg/kg, 5 h after iv 5 mg/kg artemisox 6, read-out: Mean iv circulating concentration) was 7 nM. It also gave a concentration at 7 h ([2]; male, C57/BL6, mouse, plasma, iv, 5 mg/kg, 7 h after iv 5 mg/kg artemiside 5, read-out: Mean iv circulating concentration) of 11 nM, a concentration at 24 h ([2]; male, C57/BL6, mouse, plasma, iv, 5 mg/kg, 24 h after iv 5 mg/kg artemiside 5, read-out: Mean iv circulating concentration) of 5 nM and a half-life ([2]; male, C57/BL6, mouse, plasma, iv, 5 mg/kg, iv 5 mg/kg, parent drug) of 25.8 ± 7.2 min. It also gave a concentration at 0.08 h ([2]; male, C57/BL6, mouse, plasma, po, 50 mg/kg, 0.08 h after po 50 mg/kg artemiside 5, read-out: Mean po circulating concentration) of 1860 nM, a concentration at 0.08 h ([2]; male, C57/BL6, mouse, plasma, po, 50 mg/kg, 0.08 h after po 50 mg/kg artemisox 6, read-out: Mean po circulating concentration) of 3040 nM and a concentration at 0.25 h ([2]; male, C57/BL6, mouse, plasma, po, 50 mg/kg, 0.25 h after po 50 mg/kg artemiside 5, read-out: Mean po circulating concentration) of 2150 nM. It also gave a concentration at 0.25 h ([2]; male, C57/BL6, mouse, plasma, po, 50 mg/kg, 0.25 h after po 50 mg/kg artemisox 6, read-out: Mean po circulating concentration) of 4210 nM, a concentration at 0.5 h ([2]; male, C57/BL6, mouse, plasma, po, 50 mg/kg, 0.5 h after po 50 mg/kg artemiside 5, read-out: Mean po circulating concentration) of 2510 nM and a concentration at 0.5 h ([2]; male, C57/BL6, mouse, plasma, po, 50 mg/kg, 0.5 h after po 50 mg/kg artemisox 6, read-out: Mean po circulating concentration) of 2150 nM. The concentration at 1 h ([2]; male, C57/BL6, mouse, plasma, po, 50 mg/kg, 1 h after po 50 mg/kg artemiside 5, read-out: Mean po circulating concentration) was 2030 nM, the concentration at 1 h ([2]; male, C57/BL6, mouse, plasma, po, 50 mg/kg, 1 h after po 50 mg/kg artemisox 6, read-out: Mean po circulating concentration) was 2010 nM and the concentration at 3 h ([2]; male, C57/BL6, mouse, plasma, po, 50 mg/kg, 3 h after po 50 mg/kg artemiside 5, read-out: Mean po circulating concentration) was 286 nM. For the same compound, the concentration at 3 h ([2]; male, C57/BL6, mouse, plasma, po, 50 mg/kg, 3 h after po 50 mg/kg artemisox 6, read-out: Mean po circulating concentration) was 13 nM, the concentration at 5 h ([2]; male, C57/BL6, mouse, plasma, po, 50 mg/kg, 5 h after po 50 mg/kg artemiside 5, read-out: Mean po circulating concentration) was 7 nM and the concentration at 5 h ([2]; male, C57/BL6, mouse, plasma, po, 50 mg/kg, 5 h after po 50 mg/kg artemisox 6, read-out: Mean po circulating concentration) was 5 nM. The concentration at 7 h ([2]; male, C57/BL6, mouse, plasma, po, 50 mg/kg, 7 h after po 50 mg/kg artemiside 5, read-out: Mean po circulating concentration) was 5 nM, the concentration at 7 h ([2]; male, C57/BL6, mouse, plasma, po, 50 mg/kg, 7 h after po 50 mg/kg artemisox 6, read-out: Mean po circulating concentration) was 4 nM and the half-life ([2]; male, C57/BL6, mouse, plasma, po, 50 mg/kg, po 50 mg/kg, parent drug) was 32.4 ± 6 min. The clearance ([2]; male, C57/BL6, mouse, plasma, iv 5 mg/kg) was 115 mL/min/kg, the AUC(0-inf) [2, 3] was 2 ± 0.7 µM·h and the MRT last ([2]; male, C57/BL6, mouse, plasma, iv 5 mg/kg, parent drug, 0-last up to 7 h) was 34.2 ± 2.4 min. For the same compound, the AUC(0-t) [2, 3] was 2 ± 0.7 µM·h, the Vd ([2]; male, C57/BL6, mouse, plasma, iv 5 mg/kg, read-out: Vss) was 4 ± 1.2 L/kg and the bioavailability ([2]; male, C57/BL6, mouse, plasma, po 50 mg/kg vs iv 5 mg/kg, read-out: F (bioavailability)) was 16 ± 2%. It also gave a Cmax [2, 4] of 4500 ± 2300 nM, an MRT last [2, 4] of 41.4 ± 5.4 min and an AUC(0-t) [2, 4] of 3.3 ± 1.4 µM·h. The “MAT (mean absorption time = MRTpo–MRTiv)” value ([2]; po 50 mg/kg) was 7.8 ± 4.2 min and the “quantifiable/detectable in plasma up to” value ([2]; po group, parent drug) was “up to 7 h”.
